Results on 1 compound are retold here after patent US20260256870A1, “SKIN COMPOSITION” (Eaderm Co., Ltd., priority 2019, published 2026).

“Also recorded” adds a separate entry of the source.

Assay [1] deals with SDS-induced skin roughness, medial forearm. Nature of the assay: Human skin roughness induced by 10% SDS (Example 18). Type of assay: in vivo. The procedure: Two subjects were administered with substances that promote the self-renewal ability of epidermal stem cells (apocynin, ebselen, and celecoxib) using a test of skin roughness induced by 10% sodium lauryl sulfate (SDS) solution (a test that serves as a standard for chemical-induced skin damage in humans), and the effect of the skin roughness-preventing or -ameliorating agent in improving skin roughness was evaluated. Six 1.5-cm square areas were placed on the subject's medial forearm, and each was subjected to the treatments below. • SDS non-treated (70% ethanol treatment) group • SDS treatment+solvent (50% ethanol/PBS) application group. • SDS treatment+apocynin (200 μM) solution application group • SDS treatment+ebselen (0.25%) solution application group. • SDS treatment+celecoxib (2%) solution application group A cotton ball permeated with 500 μL of 10% SDS solution (dissolved in 70% ethanol) was applied to the test area for 30 minutes each on day 0 and day 1. Apocynin was applied on day 0 before SDS treatment, applied after treatment, and then applied to the test area once daily until day 9. The TEWL at each test area was measured before and after SDS treatment, and daily from day 1 to day 7. For each area, the TEWL value before SDS treatment was subtracted from the TEWL value on the measurement day, and this value was defined as “ΔTEWL”, and this value was used for evaluation. The test area was photographed with a digital camera and with PRIMOS-CR (Canfield Scientific, Inc., USA, Integral Corporation), a high-resolution three-dimensional image analyzer. For the PRIMOS images, the Primos OMC3_22 software was used to measure the degree of skin roughness in terms of “Ry (maximum height)” and “Rz (ten-point average roughness)”, which are parameters representing surface roughness in the height direction. For each site, the value obtained by subtracting the Rz or Ry value of the SDS non-treated control from the Rz or Ry value on the measurement day was defined as “ΔRz” and “ΔRy”, and these values were used for evaluation.

Assay [2] deals with upper cervical-dorsal skin of aged mice. Nature of the assay: Irritant skin disorder (dry eczema and alopecia) model induced by 100% ethanol in aged mice. It counts as in vivo. The note with it: continuously applied, aged mice (FIG. 20). An excerpt:
In the irritant skin disorder (dry eczema and alopecia) model induced by a high concentration of ethanol (100%) in the upper cervical-dorsal skin of aged mice, a substance (apocynin) that promotes the cell competitive ability of epidermal stem cells was continuously applied.

In assay [3] the test system is SDS-induced skin roughness. Nature of the assay: Skin roughness induced by 10% SDS in hairless mice (Examples 16, 17). Type of assay: in vivo, hairless mice (HOS: HR-1). The source says:
Using a skin irritation model induced by a 10% sodium lauryl sulfate (SDS) solution (a test that serves as a standard for chemical-induced skin damage), the present inventors administered a substance that promotes the competitive self-renewal ability of epidermal stem cells (apocynin) and evaluated the effect of the skin roughness-preventing or -ameliorating agent in improving skin roughness. After acclimation of hairless mice (HOS: HR-1) to the experimental environment, the mice were divided into the three groups below, so that the body weight values were nearly uniform. • SDS non-treated group (n=2) • SDS treatment+solvent application group (n=4) • SDS treatment+200 μM apocynin application group (n=4) On the back of hairless mice, a cotton ball soaked in 500 μL of 10% SDS solution (dissolved in 70% ethanol) was applied for 30 min on days 1, 2, 3, and 4. Apocynin was applied to the back every day from the day before the experiment until day 4. For each group of mice on the third day after the start of the experiment, TEWL was measured at specific sites on the back (two sites on the left side and right side symmetrically from the center of the spine) as described above. On the eighth day, the images were taken by PRIMOS-CR (Canfield Scientific, Inc., Integral Corporation), a high-resolution 3D image analysis system. […] Using a skin irritation model induced by 10% sodium lauryl sulfate (SDS) solution, the present inventors administered a substance that promotes the competitive self-renewal ability of epidermal stem cells (ebselen) and evaluated the effect of the skin roughness-preventing or -ameliorating agent in improving skin roughness. […] For each group of mice on the eighth day after the start of the experiment, TEWL was measured at specific sites on the back (two sites on the left side and right side symmetrically from the center of the spine) as described above. […]

Assay [4] relates to skin damage induced by erlotinib. The experiment in a line: Improvement of skin damage caused by erlotinib administration, TEWL (Example 10). Type of assay: in vivo, C57BL6N mice. The note with it: 200 μM applied on the back once a day, five times a week; 7 weeks old or 6 months old mice; day 7 / day 12 (FIG. 19). The procedure: Female […] mice (7 weeks old or 6 months old) were acclimatized to the experimental environment, and then hair was removed from their back under anesthesia. […] The control non-administered group received the 0.5% methylcellulose solution of the solvent in the same way. The control group applied with the solvent and the group applied with 200 μM apocynin received an aqueous solution of each preparation once a day, five times a week on the back. To the control solvent application group the solvent (50% ethanol/PBS) of apocynin was similarly applied.

A further assay deals with COL17A1. Nature of the assay: COL17A1 expression in human epidermal keratinocytes by high content imaging (HCS). It counts as cell-based. Put shortly: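 Human epidermal keratinocytes cultured 48 h with test reagents, then immunostained for COL17A1. Per-cell fluorescence intensity quantified by high content imaging, with DAPI-based cell counting.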
[5] abbreviates: apocynin 200 μM, ebselen 0.25%, celecoxib 2%.
The mark [6] stands for this setting: eighth day, surface of the back, compared to the solvent-applied control group.

Turning to `COc1cc(C(C)=O)ccc1O` [Apocynin], in assay [1] (setting [5]), the “skin roughness (analysis of skin texture from high-resolution photographs)” value is on record as “significantly reduced”, the ΔRy entry is “significantly decreased”, the ΔRz result is “significantly decreased” and the ΔTEWL result is “significantly decreased”. Besides, in assay [1] (day 16, apocynin 200 μM (FIG. 31)), the “pigmentation / healing of the affected area” value is recorded as “healed; also recorded: almost no pigmentation”. Moreover, in assay [2], the skin damage entry was “significantly reduced”. The “TEWL on the back” value in assay [3] (200 μM apocynin, third day, compared to the solvent-applied control group (FIG. 28)) is recorded as “significantly lower”. Also, in assay [3] (setting [6]), the “Ra (arithmetic mean roughness)” value is listed as “significantly reduced” and the “Rz (ten-point average roughness)” value is listed as “significantly reduced”. Moreover, the “TEWL under erlotinib administration” value in assay [4] is given as “significantly decreased”. The “COL17A1 expression level (control ratio)” value in the assay on COL17A1 (Table 1, human epidermal keratinocytes, 48 hours after addition of reagents, fluorescence intensity per cell) was “⊚ (one double circle (⊚) represents a 1.2-fold or greater increase)”. The “COL17A1 expression / amount of COL17A1 in cultured keratinocytes compared to the control” value with COL17A1 (in vitro, HCS (FIG. 15)) was “significantly increased; also recorded: maintain or induce the COL17A1 expression; also recorded: induce the COL17A1 expression”.
